The target of the assay is T1, human Bradykinin B1 receptor (Homo sapiens, UniProt P46663).
T1 construct: host or cells: CHO-K1
T1 sequence (P46663 1-353): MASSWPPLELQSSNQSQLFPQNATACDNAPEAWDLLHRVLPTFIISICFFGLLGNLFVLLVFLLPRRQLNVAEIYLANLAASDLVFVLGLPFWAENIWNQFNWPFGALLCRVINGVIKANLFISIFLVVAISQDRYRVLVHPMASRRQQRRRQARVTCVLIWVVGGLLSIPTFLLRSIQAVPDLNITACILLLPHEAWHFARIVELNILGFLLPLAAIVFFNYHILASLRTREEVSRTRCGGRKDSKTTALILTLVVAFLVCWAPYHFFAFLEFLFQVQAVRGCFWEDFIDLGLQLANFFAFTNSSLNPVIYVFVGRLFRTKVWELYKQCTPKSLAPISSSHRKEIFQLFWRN
As to the kind of experiment: Calcium flux Assay (FLIPR) with recombinant CHO-K1 cells expressing human Bradykinin B1 receptor, in presence (hB1 IC50) or absence (hB1 free IC50) of 0.1% BSA. The class given is cell-based.

The mark [1] stands for this setting: in absence of 0.1% BSA, read-out: hB1 free IC50.
Where [2] appears, read: in presence of 0.1% BSA, read-out: hB1 IC50.

Read-outs that look alike come from different tables or passages of the source.

The source of these data is US20210317092A1 (BAYER PHARMA AKTIENGESELLSCHAFT, priority 2016, published 2021).

A word on the IC50: it is the concentration at which inhibition is half-maximal.

With `CCc1cnn(-c2ccc(NC(=O)C3(c4ccc(C)cc4F)CC3)cc2-c2nnn[nH]2)c1` [Example 375, N-[4-(4-Ethyl-1H-pyrazol-1-yl)-3-(1H-tetrazol-5-yl)phenyl]-1-(2-fluoro-4-methylphenyl)cy-clopropanecar-boxamide], under setting [1], the IC50 stood at 0.0606 µM. On to `CCOc1ccc(-c2ccc(NC(=O)C3(c4cc(F)cc(F)c4)CC3)cc2-c2nnn[nH]2)cn1` [Example 84, 1-(3,5-difluorophenyl)-N-[4-(6-ethoxypyridin-3-yl)-3-(1H-tetrazol-5-yl)phenyl] cyclopropane-carboxamide], for which the IC50 is 0.019 µM under setting [1] and 0.0418 µM under setting [2].

With `O=C(Nc1ccc(-c2ccc(N3CCOCC3)cc2)c(-c2nnn[nH]2)c1)C1(c2cccc(Cl)c2)CC1` [Example 322, 1-(3-chlorophenyl)-N-[4′-(morpholin-4-yl)-2-(1H-tetrazol-5-yl)biphenyl-4-yl]cyclopropane carboxamide], the concentration for half-maximal inhibition (IC50) under setting [2] was determined as 0.238 µM.

As to `CC(C)c1cnn(-c2ccc(NC(=O)C3(c4cccc(Cl)c4)CC3)cc2-c2nnn[nH]2)c1` [Example 396, 1-(3-chlorophenyl)-N-[4-(4-isopropyl-1H-pyrazol-1-yl)-3-(1H-tetrazol-5-yl)phenyl]cyclopro-panecarboxa-mide], under setting [1], the concentration for half-maximal inhibition (IC50) is 0.0307 µM.

Regarding `COc1ccc(-c2cc(F)c(NC(=O)C3(c4ccc(Cl)cc4)CC3)cc2-c2nnn[nH]2)cc1OC` [Example 264, 1-(4-Chlorophenyl)-N-[5-fluoro-3′,4′-dimethoxy-2-(1H-tetrazol-5-yl)biphenyl-4-yl]cyclopropane carboxamide], the 50% inhibitory concentration (IC50) runs as follows: under setting [1], 2.33 µM; under setting [2], 0.834 µM. For the compound `CCc1ccc(C2(C(=O)Nc3ccc(-c4ccc(OC)c(OC)c4)c(-c4nnn[nH]4)c3)CC2)cc1` [Example 57, N-[3′,4′-dimethoxy-2-(1H-tetrazol-5-yl)biphenyl-4-yl]-1-(4-ethylphenyl) cyclopropane-carboxamide], under setting [2], the 50% inhibitory concentration (IC50) is 0.0366 µM. With `O=C(Nc1ccc(-c2cc(F)cc(C(F)(F)F)c2)c(-c2nnn[nH]2)c1)C1(c2ccc(C(F)(F)F)cc2F)CC1` [Example 129, N-[3′-fluoro-2-(1H-tetrazol-5-yl)-5′-(trifluoromethyl)biphenyl-4-yl]-1-[2-fluoro-4-(trifluoromethyl)phenyl] cyclopropane-carboxamide], the IC50 under setting [1] turned out to be 0.0772 µM. For `O=C(Nc1ccc(-c2ccnc(C(F)(F)F)c2)c(-c2nnn[nH]2)c1)C1(c2cccc(Cl)c2F)CC1` [Example 172, 1-(3-chloro-2-fluorophenyl)-N-{3-(1H-tetrazol-5-yl)-4-[2-(trifluoromethyl)pyridin-4-yl]phenyl} cyclopropane-carboxamide], the IC50 is, setting by setting: under setting [1], 0.433 µM; under setting [2], 0.347 µM. As for `COc1ccc(-c2ccc(NC(=O)C3(c4cccc(Cl)c4)CC3)cc2-c2nnn[nH]2)cc1Cl` [Example 117, N-[3′-chloro-4′-methoxy-2-(1H-tetrazol-5-yl)biphenyl-4-yl]-1-(3-chlorophenyl) cyclopropane-carboxamide], under setting [2], the IC50 worked out at 0.448 µM.

Regarding `COc1cncc(-c2ccc(NC(=O)C3(c4cccc(C)c4)CC3)cc2-c2nnn[nH]2)c1` [Example 151, N-[4(5-methoxypyridin-3-yl)-3-(1H-tetrazol-5-yl)phenyl]-1-(3-methylphenyl) cyclopropane-carboxamide], under setting [2], the half-inhibitory concentration (IC50) was determined as 0.127 µM. On to `CCOc1ccc(-c2ccc(NC(=O)C3(c4ccc(Cl)cc4F)CC3)cc2-c2nnn[nH]2)cn1` [Example 75, 1-(4-chloro-2-fluorophenyl)-N-[4-(6-ethoxypyridin-3-yl)-3-(1H-tetrazol-5-yl)phenyl] cyclopropane-carboxamide], for which the IC50 turned out to be 0.0141 µM under setting [1] and 0.0227 µM under setting [2]. As for `CCOc1ccc(-c2ccc(NC(=O)C3(c4cc(OC)ccc4F)CC3)cc2-c2nnn[nH]2)cn1` [Example 104, N-[4-(6-ethoxypyridin-3-yl)-3-(1H-tetrazol-5-yl)phenyl]-1-(2-fluoro-5-methoxyphenyl) cyclopropane-carboxamide], under setting [2], the 50% inhibitory concentration (IC50) amounted to 0.0464 µM.
